Molecular target: Phospholipase D1 (Homo sapiens) + Phospholipase D1 (Homo sapiens) (UniProt Q13393+Q13393)
Test: phospholipase D1 inhibition, isolated enzyme – biochemical, Lib32, assay 3A, dose response (AID 624001)
Settings: purified PLD1 enzyme activity assay

Chain of Phospholipase D1 (Homo sapiens) + Phospholipase D1 (Homo sapiens) (Q13393 whole entry, looked up): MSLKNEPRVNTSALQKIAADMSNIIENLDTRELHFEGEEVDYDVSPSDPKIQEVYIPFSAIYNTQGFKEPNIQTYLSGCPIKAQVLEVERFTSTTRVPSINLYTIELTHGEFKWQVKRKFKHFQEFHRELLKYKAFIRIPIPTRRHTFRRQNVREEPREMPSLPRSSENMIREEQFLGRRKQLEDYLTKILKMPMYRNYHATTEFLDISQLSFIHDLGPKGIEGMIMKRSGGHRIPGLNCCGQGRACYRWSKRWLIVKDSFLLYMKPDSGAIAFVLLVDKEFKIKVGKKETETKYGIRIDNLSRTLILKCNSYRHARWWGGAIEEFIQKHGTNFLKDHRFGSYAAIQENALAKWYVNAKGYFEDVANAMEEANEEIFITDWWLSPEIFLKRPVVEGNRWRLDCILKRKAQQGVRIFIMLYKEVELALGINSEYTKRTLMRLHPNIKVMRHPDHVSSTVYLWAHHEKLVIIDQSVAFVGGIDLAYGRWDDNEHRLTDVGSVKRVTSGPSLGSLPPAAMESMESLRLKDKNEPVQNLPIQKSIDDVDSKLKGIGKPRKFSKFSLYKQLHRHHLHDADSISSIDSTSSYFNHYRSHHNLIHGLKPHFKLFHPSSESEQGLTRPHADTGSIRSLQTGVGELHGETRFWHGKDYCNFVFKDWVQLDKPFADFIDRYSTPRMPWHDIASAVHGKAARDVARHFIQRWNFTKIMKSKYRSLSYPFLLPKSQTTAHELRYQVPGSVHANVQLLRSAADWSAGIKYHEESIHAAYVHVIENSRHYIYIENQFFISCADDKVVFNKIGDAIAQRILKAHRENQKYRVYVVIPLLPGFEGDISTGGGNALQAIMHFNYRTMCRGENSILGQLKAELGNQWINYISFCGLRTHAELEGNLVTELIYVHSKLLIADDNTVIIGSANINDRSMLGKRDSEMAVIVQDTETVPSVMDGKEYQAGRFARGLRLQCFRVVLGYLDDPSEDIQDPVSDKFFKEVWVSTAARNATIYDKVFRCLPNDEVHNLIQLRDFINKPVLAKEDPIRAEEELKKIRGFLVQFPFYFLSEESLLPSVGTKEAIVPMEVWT
Chain of Phospholipase D1 (Homo sapiens) + Phospholipase D1 (Homo sapiens) (Q13393 whole entry, looked up): as above

SMILES: COc1cc(C(=O)NCCN2CCC3(CC2)C(=O)NCN3c2cccc(F)c2)cc(OC)c1OC
- IC50: 20 µM
